Measured values taken from patent US20240043427A1 (Gilead Sciences, Inc., priority 2020, published 2024).

What was measured:
CD73 [1] = molecular target: T1, CD73 (Homo sapiens (Human), UniProt P21589); format: biochemical; settings: 1 mM NaH2PO4 in enzyme buffer, CD73 0.3 nM, AMP 15 uM
CD73 [2] = molecular target: T1, CD73; test: MDA-MB-231 Cell Based CD73 Activity Assay (DMEM); settings: MDA-MB-231-GFP cells, DMEM medium with 10% human plasma, 200 uM AMP

T1 sequence (P21589 27-574): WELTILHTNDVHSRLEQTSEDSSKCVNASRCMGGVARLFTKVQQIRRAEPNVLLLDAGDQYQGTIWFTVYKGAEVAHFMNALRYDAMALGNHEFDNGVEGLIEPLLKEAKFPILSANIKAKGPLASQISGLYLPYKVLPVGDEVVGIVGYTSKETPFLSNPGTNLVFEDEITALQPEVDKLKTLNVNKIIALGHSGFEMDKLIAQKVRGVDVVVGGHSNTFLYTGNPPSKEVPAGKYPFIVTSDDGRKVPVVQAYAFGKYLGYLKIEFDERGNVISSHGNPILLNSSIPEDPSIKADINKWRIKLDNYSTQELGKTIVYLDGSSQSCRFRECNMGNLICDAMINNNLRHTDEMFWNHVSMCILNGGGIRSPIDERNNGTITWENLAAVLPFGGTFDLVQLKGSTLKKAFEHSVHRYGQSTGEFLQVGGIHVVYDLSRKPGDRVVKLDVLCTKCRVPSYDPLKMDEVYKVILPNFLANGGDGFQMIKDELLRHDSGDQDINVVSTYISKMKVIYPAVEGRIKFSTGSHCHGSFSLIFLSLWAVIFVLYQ

Compound	IC50 (CD73 [1]) [nM]	EC50 (CD73 [2]) [nM]
O=c1[nH]cc(-c2cc([C@@H]3C[C@H]3c3cnc(C(F)(F)F)nc3)c3ncc(F)n3n2)c(=O)[nH]1 [Example 273, 5-(3-fluoro-8-((1R,2R)-2-(2-(trifluoromethyl)pyrimidin-5-yl)cyclopropyl)imidazo[1,2-b]pyridazin-6-yl)pyrimidine-2,4(1H,3H)-dione]	9.39	58.1
O=c1[nH]cc(-c2cc(N3C[C@@H](Oc4ccc(OC(F)(F)F)cn4)C(F)(F)C3)c3nccn3n2)c(=O)[nH]1 [Example 334, (R)-5-(8-(3,3-difluoro-4-((5-(trifluoromethoxy)pyridin-2-yl)oxy)pyrrolidin-1-yl)imidazo[1,2-b]pyridazin-6-yl)pyrimidine-2,4(1H,3H)-dione]	24.4	118
CC1(CC(F)(F)F)CN(c2cc(-c3c[nH]c(=O)[nH]c3=O)nn3ccnc23)C1 [Example 445, 5-(8-(3-methyl-3-(2,2,2-trifluoroethyl)azetidin-1-yl)imidazo[1,2-b]pyridazin-6-yl)pyrimidine-2,4(1H,3H)-dione]	148	256
O=c1[nH]cc(-c2cc([C@H]3C[C@@H]3c3ccc4c(cnn4CC(F)(F)F)c3)c3ncnn3n2)c(=O)[nH]1 [Example 430, 5-(8-((1S,2S)-2-(1-(2,2,2-trifluoroethyl)-1H-indazol-5-yl)cyclopropyl)-[1,2,4]triazolo[1,5-b]pyridazin-6-yl)pyrimidine-2,4(1H,3H)-dione]	0.18	0.71
O=c1[nH]cc(-c2cc(N3CCC(C4CC(F)(F)C4)C3)c3nccn3n2)c(=O)[nH]1 (stereo not drawn) [Example 578, 5-(8-(3-(3,3-difluorocyclobutyl)pyrrolidin-1-yl)imidazo[1,2-b]pyridazin-6-yl)pyrimidine-2,4(1H,3H)-dione]	161	1870
O=c1[nH]cc(-c2cc(N3C[C@@H](Oc4cc(C(F)(F)F)ccn4)C(F)(F)C3)c3nccn3n2)c(=O)[nH]1 [Example 331, (R)-5-(8-(3,3-difluoro-4-((4-(trifluoromethyl)pyridin-2-yl)oxy)pyrrolidin-1-yl)imidazo[1,2-b]pyridazin-6-yl)pyrimidine-2,4(1H,3H)-dione]	16.2	11.1
O=c1[nH]cc(-c2cc(N3CCC(c4ccccc4C(F)(F)F)C3)c3nccn3n2)c(=O)[nH]1 (stereo not drawn) [Example 250, 5-(8-(3-(2-(trifluoromethyl)phenyl)pyrrolidin-1-yl)imidazo[1,2-b]pyridazin-6-yl)pyrimidine-2,4(1H,3H)-dione]	110	687
O=c1[nH]cc(-c2cc([C@H]3C[C@@H]3c3ccc4cnn(CC(F)F)c4c3)c3nccn3n2)c(=O)[nH]1 [Example 125, 5-(8-((1S,2S)-2-(1-(2,2-difluoroethyl)-1H-indazol-6-yl)cyclopropyl)imidazo[1,2-b]pyridazin-6-yl)pyrimidine-2,4(1H,3H)-dione]	0.71	0.17
N#Cc1ccc(O[C@H]2CN(c3cc(-c4c[nH]c(=O)[nH]c4=O)nn4ccnc34)CC2(F)F)cc1 [Example 237, (S)-4-((1-(6-(2,4-dioxo-1,2,3,4-tetrahydropyrimidin-5-yl)imidazo[1,2-b]pyridazin-8-yl)-4,4-difluoropyrrolidin-3-yl)oxy)benzonitrile]	0.7	1.1
C[C@H]1CN(c2cc(-c3c[nH]c(=O)[nH]c3=O)nn3ccnc23)CC1(F)F [Example 516, (S)-5-(8-(3,3-difluoro-4-methylpyrrolidin-1-yl)imidazo[1,2-b]pyridazin-6-yl)pyrimidine-2,4(1H,3H)-dione]	3.17	12.8
CN(C)C(=O)COC1CN(c2cc(-c3c[nH]c(=O)[nH]c3=O)nn3ccnc23)CC1(F)F (stereo not drawn) [Example 204, 2-[1-[6-(2,4-dioxo-1H-pyrimidin-5-yl)imidazo[1,2-b]pyridazin-8-yl]-4,4-difluoro-pyrrolidin-3-yl]oxy-N,N-dimethyl-acetamide]	1.63	9.31
CC(C)n1cc(CC2CCN(c3cc(-c4c[nH]c(=O)[nH]c4=O)nn4ccnc34)C2)nn1 (stereo not drawn) [Example 663, 5-(8-(3-((1-isopropyl-1H-1,2,3-triazol-4-yl)methyl)pyrrolidin-1-yl)imidazo[1,2-b]pyridazin-6-yl)pyrimidine-2,4(1H,3H)-dione]	24.5	160
C[C@@H]1CN(c2cc(-c3c[nH]c(=O)[nH]c3=O)nn3ccnc23)C[C@H]1C(F)(F)F [Example 193, 5-[8-[(3S,4S)-3-methyl-4-(trifluoromethyl)pyrrolidin-1-yl]imidazo[1,2-b]pyridazin-6-yl]-1H-pyrimidine-2,4-dione]	151	682
O=c1[nH]cc(-c2cc([C@H]3C[C@@H]3c3ccc4cnn(CC(F)(F)F)c4c3)n3ncc(F)c3n2)c(=O)[nH]1 [Example 716, 5-(3-fluoro-7-((1S,2S)-2-(1-(2,2,2-trifluoroethyl)-1H-indazol-6-yl)cyclopropyl)pyrazolo[1,5-a]pyrimidin-5-yl)pyrimidine-2,4(1H,3H)-dione]	0.35	0.28
O=c1[nH]cc(-c2cc([C@H]3C[C@@H]3c3ccc(OC(F)F)cn3)c3nccn3n2)c(=O)[nH]1 (racemic) [Example 136, 5-(8-((1S,2S)-2-(5-(difluoromethoxy)pyridin-2-yl)cyclopropyl)imidazo[1,2-b]pyridazin-6-yl)pyrimidine-2,4(1H,3H)-dione and 5-(8-((1R,2R)-2-(5-(difluoromethoxy)pyridin-2-yl)cyclopropyl)imidazo[1,2-b]pyridazin-6-yl)pyrimidine-2,4(1H,3H)-dione]	3.11	6.37
O=c1[nH]cc(-c2cc(N3CC4CC(C3)C4(F)F)c3nccn3n2)c(=O)[nH]1 [Example 575, 5-(8-(6,6-difluoro-3-azabicyclo[3.1.1]heptan-3-yl)imidazo[1,2-b]pyridazin-6-yl)pyrimidine-2,4(1H,3H)-dione]	57.1	142
O=c1[nH]cc(-c2cc(C3CCOCC3)c3nccn3n2)c(=O)[nH]1 [Example 410, 5-(8-(tetrahydro-2H-pyran-4-yl)imidazo[1,2-b]pyridazin-6-yl)pyrimidine-2,4(1H,3H)-dione]	817	928
O=C(NC1CN(c2cc(-c3c[nH]c(=O)[nH]c3=O)nn3ccnc23)CC1(F)F)c1ccc(C(F)(F)F)cn1 (stereo not drawn) [Example 211, N-[1-[6-(2,4-dioxo-1H-pyrimidin-5-yl)imidazo[1,2-b]pyridazin-8-yl]-4,4-difluoro-pyrrolidin-3-yl]-5-(trifluoromethyl)pyridine-2-carboxamide]	2.33	10.8
C[C@@H](NC(=O)O[C@H]1CN(c2cc(-c3c[nH]c(=O)[nH]c3=O)nn3ccnc23)CC1(F)F)C(F)(F)F [Example 546, (S)-1-(6-(2,4-dioxo-1,2,3,4-tetrahydropyrimidin-5-yl)imidazo[1,2-b]pyridazin-8-yl)-4,4-difluoropyrrolidin-3-yl ((R)-1,1,1-trifluoropropan-2-yl)carbamate]	1.23	0.69
CC(C)Cc1cn2nc(-c3c[nH]c(=O)[nH]c3=O)cc(N3CC(F)(F)C4(CC4)C3)c2n1 [Example 475, 5-(8-(7,7-difluoro-5-azaspiro[2.4]heptan-5-yl)-2-isobutylimidazo[1,2-b]pyridazin-6-yl)pyrimidine-2,4(1H,3H)-dione]	32.1	932
O=c1[nH]cc(-c2cc(N3CC(F)C4(CC4)C3)c3nccn3n2)c(=O)[nH]1 (stereo not drawn) [Example 171, 5-(8-(7-fluoro-5-azaspiro[2.4]heptan-5-yl)imidazo[1,2-b]pyridazin-6-yl)pyrimidine-2,4(1H,3H)-dione]	3.17	14.1
O=c1[nH]cc(-c2cc([C@H]3C[C@@H]3c3cc4c(cn3)cnn4CC(F)(F)F)c3ncc(F)n3n2)c(=O)[nH]1 (racemic) [Example 604, 5-(3-fluoro-8-((1S,2S)-2-(1-(2,2,2-trifluoroethyl)-1H-pyrazolo[4,3-c]pyridin-6-yl)cyclopropyl)imidazo[1,2-b]pyridazin-6-yl)pyrimidine-2,4(1H,3H)-dione]	0.83	0.12
O=C1N(CC(F)(F)F)c2cc([C@H]3C[C@@H]3c3cc(-c4c[nH]c(=O)[nH]c4=O)nn4c(F)cnc34)ccc2C12CCCC2 [Example 385, 5-(3-fluoro-8-((1S,2S)-2-(2′-oxo-1′-(2,2,2-trifluoroethyl)spiro[cyclopentane-1,3′-indolin]-6′-yl)cyclopropyl)imidazo[1,2-b]pyridazin-6-yl)pyrimidine-2,4(1H,3H)-dione]	0.68	0.25
O=c1[nH]cc(-c2cc(N3CCC4(COC4)C3)c3nccn3n2)c(=O)[nH]1 [Example 653, 5-(8-(2-oxa-6-azaspiro[3.4]octan-6-yl)imidazo[1,2-b]pyridazin-6-yl)pyrimidine-2,4(1H,3H)-dione]	25.3	130
O=c1[nH]cc(-c2cc([C@H]3C[C@@H]3c3ccc4cnn(CC(F)(F)F)c4c3)n3nccc3n2)c(=O)[nH]1 [Example 456, 5-(7-((1S,2S)-2-(1-(2,2,2-trifluoroethyl)-1H-indazol-6-yl)cyclopropyl)pyrazolo[1,5-a]pyrimidin-5-yl)pyrimidine-2,4(1H,3H)-dione]	0.53	0.15
O=c1[nH]cc(-c2cc(N3C4CCC3CC4)c3nccn3n2)c(=O)[nH]1 [Example 646, 5-(8-(7-azabicyclo[2.2.1]heptan-7-yl)imidazo[1,2-b]pyridazin-6-yl)pyrimidine-2,4(1H,3H)-dione]	> 250	338
O=c1[nH]cc(-c2cc([C@H]3C[C@@H]3c3cc(C(F)(F)F)c4ncccc4c3)c3nccn3n2)c(=O)[nH]1 [Example 135, 5-(8-((1S,2S)-2-(8-(trifluoromethyl)quinolin-6-yl)cyclopropyl)imidazo[1,2-b]pyridazin-6-yl)pyrimidine-2,4(1H,3H)-dione]	1.99	44
